Laboratory results reported in patent US11161885B2, “Antimicrobial protein” (CONSUMO EM VERDE—BIOTECNOLOGIA DAS PLANTAS, S.A., priority 2010, dated 2021).

Experiments:
Type in all cases: cell-based
Candida albicans [1] = assay: Growth curve in PDB pH 7 medium
From the text: Growth curve for BLAD with Candida albicans in PDB pH 7 medium: see FIG. 4.

Candida albicans [2] = assay: Time-kill curve and growth curve for BLAD and/or EDTA; details: EDTA at 0.1 mg/ml alone
Method: (§1) • MIC—Minimum Inhibitory Concentration: the lowest concentration of an antimicrobial that inhibits the visible growth of a microorganism. • MFC/MBC—Minimum Fungicidal/Bactericidal Concentration (or Minimal Lethal Concentration): the lowest concentration of an antimicrobial agent needed to kill 99.9% of the initial inoculum after 24 h under a standardized set of conditions. • Time-kill curves—Determination of the “killing” of an isolate over time by one or more antimicrobial agents under controlled conditions is known as the time-kill method. It is a broth based method where the rate of killing of a fixed inoculum is determined by sampling control (organism, no drug) and antimicrobial agent-containing tubes or flasks, at certain time intervals, and determining the survivor colony count (cfu/ml) by spreading each sample onto an agar plate.
(§2) Time-kill curves for BLAD and/or EDTA with (A) Listeria monocytogenes, (B) Pseudomonas aeruginosa and (C) Candida albicans: see FIG. 9.

Listeria monocytogenes = assay: Time-kill curves for BLAD and/or EDTA; details: EDTA at 0.1 mg/ml alone
Method: as §1, §2

Pseudomonas aeruginosa = assay: Time-kill curves for BLAD and/or EDTA; details: EDTA at 1 mg/ml alone
Method: as §1, §2

In the case of `C[C@@H]1[C@H](O)[C@@H](C)/C=C/C=C/C=C/C=C/C=C/C=C/C=C/[C@H](O[C@@H]2O[C@H](C)[C@@H](O)[C@H](N)[C@@H]2O)C[C@@H]2O[C@](O)(C[C@@H](O)C[C@@H](O)[C@H](O)CC[C@@H](O)C[C@@H](O)CC(=O)O[C@H]1C)C[C@H](O)[C@H]2C(=O)O` [amphotericin B], the “activity in growth curve” value (Candida albicans [1]; 10 μg/ml) is reported as “fungistatic”.
In the case of `OC(Cn1cncn1)(Cn1cncn1)c1ccc(F)cc1F` [fluconazole], the “activity in growth curve” value (Candida albicans [1]; 100 μg/ml) is reported as “merely delays growth”.
For `O=C(O)CN(CCN(CC(=O)O)CC(=O)O)CC(=O)O` [EDTA, ethylenediaminetetraacetic acid], the “activity in time-kill curve” value (Candida albicans [2]) was “fungistatic”, the “activity in time-kill curve” value (Listeria monocytogenes) was “neither BLAD at 10 μg/ml nor EDTA at 0.1 mg/ml inhibits growth” and the “activity in time-kill curve” value (Pseudomonas aeruginosa) was “bacteriostatic”.
